Results taken from patent US5977133A, “Pyridone antibiotic with improved safety profile” (priority 1998, dated 1999).
Structures can show the parent of a compound that is named as a salt.

System: bacteria
Test: In vitro antibacterial activity (overall statement)
Type: cell-based
Conditions: ciprofloxacin resistant strains

CN[C@@H]1CN(c2c(F)cn3c(=O)c(C(=O)O)cc(C4CC4)c3c2C)CC12CC2 [Example 1, 1-cyclopropyl-8-(7(S)-N-methylamino-5-azaspiro[2.4]heptyl)-7-fluoro-9-methyl-4-oxo-4H-guinolizine-3-carboxylic acid hydrochloride]
activity against ciprofloxacin resistant strains in words: highly active against ciprofloxacin resistant strains
